Source: US20230085945A1, “ORTHOGONAL SAFETY SWITCHES TO ELIMINATE GENETICALLY ENGINEERED CELLS” (The Board of Trustees of the Leland Stanford Junior …, priority 2020, published 2023)

How the values were obtained:
[1] = tested on: NANOG^iCasp9-YFP hPSC-derived day-6 liver progenitors, bone progenitors and forebrain progenitors; experiment: Survival of differentiated hPSC-derived tissue progenitors after AP20; type: cell-based, human; details: 24-hour AP20 treatment
Method: FIG. 3: Implementation of the NANOG^iCasp9-YFP safety switch. A) Schema depicting how drug AP20187 induces dimerization of Caspase9 in undifferentiated NANOG^iCasp9-YFP hESCs, subsequently triggering cell death (top left). NANOG^iCasp9-YFP hESCs were treated for 24 hours with increasing concentrations of AP20187. AP20187 was withdrawn, and cultures were further grown in mTeSR1 to allow any surviving hESCs to grow; any surviving colonies were counted 1 week later (top right). Alkaline phosphatase staining of whole wells of a 12-well plate after 24-hour treatment with AP20187 (bottom). […] Bioluminescent imaging of mice occurred weekly for 5 weeks with no transplant control (NTC) animals included for relative luminescence normalization. Total flux (photons/sec) was measured for each animal and averaged. […] The percentage of surviving cells was calculated relative to untreated controls. […]
Cell count assay—hESCs were dissociated with EDTA and 5×10^5 cells were plated per well of a 6-well plate that was pre-coated with Matrigel. […] Subsequently, cells were dissociated and the number of viable cells were counted using the Bio-Rad TC20™ Automated Cell Counter (trypan blue exclusion). […]

[2] = tested on: NANOG mRNA and differentiation marker genes in NANOG^iCasp9-YFP hPSCs and differentiated cell-types; experiment: qPCR of NANOG and marker gene expression after AP20187; type: cell-based, human; details: for expression of differentiation markers in differentiated cell-types: AP20187 1 nM, 24 hours
Method: FIG. 9: Efficacy of the NANOG^iCasp9-YFP safety switch (related to FIG. 3). A) Undifferentiated NANOG^iCasp9-YFP hPSCs were treated with AP20187 at the indicated concentrations for 24 hours, and then the percentage of viable remaining cells was subsequently analyzed using FACS analysis (left) and alamar blue staining (right). For the FACS analysis, the percentage of cells shown represents viable cells (i.e., DAPI-negative cells obtained after DAPI staining) that were then gated for YFP+ (i.e., NANOG^+) cells. For the alamar blue analysis, wild-type hPSCs were used as a negative control. […] AP20187 doses equal to or greater than 100 nM may prevent efficient killing of NANOG^iCasp9-YFP hPSCs by considerably downregulating NANOG. Gene expression is depicted normalized to the reference gene YWHAZ (i.e., YWHAZ=1.0). C) Undifferentiated NANOG^iCasp9-YFP hPSCs were treated with the indicated doses of AP20187 for various lengths of time (6, 12, 24, 48, 72 hours) and then alamar blue assay was performed immediately thereafter to quantify the extent of cell death. […] D) Immunofluorescent imaging of NANOG^iCasp9-YFP hESCs in the undifferentiated state and after differentiation into day 6 sclerotome as marked by TWIST1 expression, both without and with treatment of cells with 1 nM AP20187 for 24 hours. […] The following marker genes were assessed in each respective cell-type: sclerotome (bone) progenitors (TWIST1, SOX9, PAX1, PAX9), liver progenitors (SOX17, HNF4A, AFP, TBX3), and forebrain (neural) progenitors (PAX6, FOXG1, OTX2, SIX3). F) Further validation of NANOG^iCasp9-YFP using a simulated mixed cell culture assay. NANOG^iCasp9-YFP undifferentiated hPSCs and hPSC-derived derived sclerotome cells were mixed at a 3:7 ratio, respectively. Mixed cells were treated with AP20187, and 24 hours post-treatment, FACS analysis was done to assess remaining NANOG^iCasp9-YFP hPSCs in culture.
RNA extraction, reverse transcription and quantitative PCR. Undifferentiated or differentiated hPSCs were lysed in […] of RLT Plus Buffer and RNA was extracted using the RNeasy Plus Mini Kit (Qiagen) according to the manufacturer's protocol. 300 ng of total RNA was reverse transcribed into cDNA for qPCR using the High-Capacity cDNA Reverse Transcription Kit (Applied Biosystems) according to the manufacturer's protocol. qPCR was performed in 384-well format as previously described (Loh et al., 2016) on a QuantStudio 5 qPCR machine (Thermo Fisher). Expression of all genes was first normalized to the levels of the reference gene YWHAZ, and then plotted relative to the levels of YWHAZ (i.e., 1.0=equivalent to YWHAZ). The following forward and reverse primer sequences were used to detect the expression of the respective genes: […]

CC[C@H](C(=O)N1CCCC[C@H]1C(=O)O[C@H](CCc1ccc(OC)c(OC)c1)c1cccc(OCC(=O)NCC(CNC(=O)COc2cccc([C@@H](CCc3ccc(OC)c(OC)c3)OC(=O)[C@@H]3CCCCN3C(=O)[C@@H](CC)c3cc(OC)c(OC)c(OC)c3)c2)CN(C)C)c1)c1cc(OC)c(OC)c(OC)c1 [AP20]
differentiated progenitors spared / remaining viable [1]: > 95% | expression of differentiation markers in differentiated cell-types [2]: not substantially effected | expression of differentiation markers in differentiated cell-types ([2]; listed as AP20187): did not substantially impact marker gene expression | doses that may prevent efficient killing by considerably downregulating NANOG ([2]; NANOG^iCasp9-YFP hPSCs): ≥ 100 nM | NANOG mRNA expression in undifferentiated hPSCs ([2]; increasing doses of AP20187): downregulated NANOG mRNA expression
